One assay addresses Coagulation factor XII (Homo sapiens, UniProt P00748). The format is functional.
The target in assay [1] is T1, Dual specificity protein phosphatase 3 (Homo sapiens, UniProt P51452). Put plainly: VHR1 phosphatase inhibitors, primary screen, biochemical, absorbance, uHTS (AID 1654).
The target of assay [2] is T1, Dual specificity protein phosphatase 3. Put plainly: VHR1 phosphatase inhibitors, biochemical (AID 1878).
The target of assay [3] is T2, Dual specificity protein phosphatase 6 (Rattus norvegicus, UniProt Q64346).
T2 sequence (Q64346 whole entry): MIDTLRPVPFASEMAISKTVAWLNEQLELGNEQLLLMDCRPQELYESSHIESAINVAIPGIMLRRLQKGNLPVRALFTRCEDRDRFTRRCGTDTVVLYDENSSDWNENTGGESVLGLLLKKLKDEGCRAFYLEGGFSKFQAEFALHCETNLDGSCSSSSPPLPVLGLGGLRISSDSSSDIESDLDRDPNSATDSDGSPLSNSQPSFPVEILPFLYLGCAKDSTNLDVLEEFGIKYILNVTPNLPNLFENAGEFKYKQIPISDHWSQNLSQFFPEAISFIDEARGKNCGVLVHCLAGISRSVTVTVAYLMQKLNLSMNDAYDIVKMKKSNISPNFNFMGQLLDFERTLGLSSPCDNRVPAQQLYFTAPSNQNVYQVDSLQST
As to the kind of experiment: MKP-3 phosphatase inhibitors, primary screen, biochemical, rat enzyme, in vitro (AID 425).

Assay [4] has as its target DNA dC->dU-editing enzyme APOBEC-3G (Homo sapiens, UniProt Q9HC16). As to the kind of experiment: Dose Response confirmation of small molecule APOBEC3G DNA Deaminase Inhibitors via a fluorescence-based single-stranded DNA deaminase assay. [Related pubchem assays (depositor defined):AID493012, AID493028]. Format: functional.
A further assay addresses T3, Bcl-2-related protein A1 (Mus musculus, UniProt Q07440).
T3 sequence (Q07440 whole entry): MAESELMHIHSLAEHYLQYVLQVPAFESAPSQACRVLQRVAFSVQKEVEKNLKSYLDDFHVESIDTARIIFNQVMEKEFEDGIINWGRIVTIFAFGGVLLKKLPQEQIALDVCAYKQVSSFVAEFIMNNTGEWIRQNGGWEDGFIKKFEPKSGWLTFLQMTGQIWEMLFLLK
The format is functional.

Assay [5] concerns the target T4, Ubiquitin-conjugating enzyme E2 N (Homo sapiens, UniProt P61088).
T4 sequence (P61088 whole entry): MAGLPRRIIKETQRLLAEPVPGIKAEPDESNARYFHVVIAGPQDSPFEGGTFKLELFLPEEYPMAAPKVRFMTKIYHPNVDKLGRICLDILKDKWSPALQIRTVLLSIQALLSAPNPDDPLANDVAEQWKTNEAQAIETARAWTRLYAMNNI
The format is functional.

Assay [6] deals with T4, Ubiquitin-conjugating enzyme E2 N. Format: functional. The source holds these as a separate data set.
The target of assay [7] is T5, Type-1 angiotensin II receptor (Homo sapiens, UniProt P30556).
T5 sequence (P30556 whole entry): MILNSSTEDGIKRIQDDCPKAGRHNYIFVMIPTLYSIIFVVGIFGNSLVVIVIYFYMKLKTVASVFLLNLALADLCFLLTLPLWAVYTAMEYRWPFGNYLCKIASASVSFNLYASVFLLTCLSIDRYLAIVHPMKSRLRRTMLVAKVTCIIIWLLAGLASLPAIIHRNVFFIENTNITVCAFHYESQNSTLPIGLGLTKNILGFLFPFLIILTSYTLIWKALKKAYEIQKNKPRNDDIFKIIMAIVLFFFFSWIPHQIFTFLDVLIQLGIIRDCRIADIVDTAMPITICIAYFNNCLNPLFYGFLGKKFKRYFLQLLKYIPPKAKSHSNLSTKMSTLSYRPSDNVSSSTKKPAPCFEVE
Put plainly: AT1 receptor agonists, dose response, selectivity assay for APJ receptor agonist project, cell-based, uHTS hits (AID 488865).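 Note: beta-arrestin recruitment to AT1 measured by enzyme fragment complementation luminescence.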 The format is functional.

The nature of assay [8]: HEp-2 cell cytotoxicity, dose response, cytotoxicity control for RSV inhibitor project, HTS (AID 2410). The format is functional. The settings on record: human respiratory syncytial virus.
Assay [9] is described as follows: A Cell Based Secondary Assay To Explore Cytotoxicity of Compounds that Sensitize Mycobacterium Tuberculosis to Beta-Lactam Antibiotics. Format: functional.
In assay [10] the target is Lysine-specific demethylase 4C (Homo sapiens, UniProt Q9H3R0). As to the kind of experiment: GASC-1 (JMJD2C) histone demethylase inhibitors, dose response, biochemical, DELFIA europium, cherry-picked samples (AID 488835). The format is functional.
The next assay has as its target SUMO-activating enzyme (Homo sapiens, UniProt Q9UBT2). As to the kind of experiment: SUMOylation inhibitor hit validation, confirmation, SUMOylation inhibitor project, biochemical, AlphaScreen (AID 2018). The format is functional.
Assay [11] in a line: insulin promoter down-regulators in MIN6 cells, imaging, high-content screening, mouse beta cells (AID 1628). The format is functional.
Assay [12] in a line: cytotoxicity in MIN6 insulinoma cells, dose response, cytotoxicity control, cell-based, mouse insulinoma (AID 2122).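 Note: confirmatory high-throughput counterscreen run to flag cytotoxic compounds; mouse MIN-6 beta cells carrying an insulin promoter eGFP reporter.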 The format is functional.
Another assay concerns Vero. As to the kind of experiment: host cell cytotoxicity of antiviral hits, dose response, cytotoxicity control for West Nile virus antiviral project, secondary assay (AID 1650). The settings on record: Chlorocebus sabaeus. Format: functional.
Assay [13] in a line: inhibitors of intracellular T. cruzi replication, confirmation, NIH3T3 host cells, beta-gal luminescence (AID 2044).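 Note: intracellular parasites grown in NIH/3T3 mouse fibroblasts as host cells; luminescent beta-galactosidase reporter signal from transgenic T. cruzi replicating inside host cells; inhibitors lower the luminescence signal.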 The format is functional, cell-based.
Assay [14] is described as follows: cytotoxicity toward NIH3T3 fibroblasts, dose response, counter-screen, cell-based, ATP luminescence, mouse fibroblasts (AID 2010).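 Note: cells exposed to compound for about 90 hours before reading.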 Format: functional. On the technique in general: The purpose of a counterscreen is to sort out artefacts and off-target activity.
A further assay deals with Paired box protein Pax-8 (Homo sapiens, UniProt Q06710). As to the kind of experiment: inhibitors of PAX8-driven TPO luciferase reporter, dose response, RMG-I cells, cherry-pick (AID 687027).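 Note: luciferase reporter driven by Pax8 target thyroperoxidase promoter measured by SteadyGlo luminescence.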 The format is functional, cell-based. On the technique in general: Reporter assays use an easily measured gene product as a stand-in for the process of interest.
Assay [15] has as its target Peroxisome proliferator-activated receptor gamma/Nuclear receptor coactivator 1 (Homo sapiens, UniProt P37231). Put plainly: TR-FRET dose response biochemical High Throughput Screening assay for agonists of the steroid receptor coactivator 1 (SRC-1) recruitment by the peroxisome proliferator-activated receptor gamma (PPAR gamma): non-selective agonists. [Related pubchem assays (depositor defined):AID1300, AID1808, AID504735, AID631]. Format: protein assay. For orientation: In TR-FRET formats the signal depends on donor and acceptor labels being close together.

The target in assay [16] is Peroxisome proliferator-activated receptor gamma/Nuclear receptor coactivator 3 (Homo sapiens, UniProt P37231). Put plainly: TR-FRET dose response biochemical High Throughput Screening assay for agonists of the steroid receptor coactivator 3 (SRC-3) recruitment by the peroxisome proliferator-activated receptor gamma (PPAR gamma): non-selective agonists. [Related pubchem assays: 1301 (Confirmation screen.), 1048 (Primary screen.)]. The format is functional.

In assay [17] the target is Peroxisome proliferator-activated receptor gamma/Nuclear receptor coactivator 2 (Homo sapiens, UniProt P37231). As to the kind of experiment: TR-FRET dose response biochemical High Throughput Screening assay for agonists of the steroid receptor coactivator 2 (SRC-2) recruitment by the peroxisome proliferator-activated receptor gamma (PPAR gamma): non-selective agonists. [Related pubchem assays: 1297, 1032 ]. The format is functional.

Assay [18] relates to HEK293. Put plainly: NOD1 signaling inhibitors, primary screen, cell-based, luminescence, uHTS (AID 1578). The settings on record: Homo sapiens. The format is functional.
Assay [19] has as its system HEK293. Put plainly: cells. The format is functional, cell-based. The note with it: Homo sapiens.
For assay [20], the system named is HEK293. Put plainly: cells. Format: functional, cell-based. The note with it: Homo sapiens. This is another data set of the same source.
Assay [21] has as its target Nucleotide-binding oligomerization domain-containing protein 2 (Homo sapiens, UniProt Q9HC29). Put plainly: NOD2 signaling inhibitors, cell-based, luminescence, uHTS, HEK293 (AID 1566). Format: functional.
The test system of assay [22] is HEK293. Put plainly: NOD2 signaling inhibitors in MDP-stimulated cells, cell-based, uHTS, luminescence (AID 2001). The format is functional. The note with it: Homo sapiens.
Assay [23] deals with HEK293. Put plainly: cells. The format is functional, cell-based. The settings on record: Homo sapiens. This is another data set of the same source.

The structures appear in SMILES notation. The source made the active and inactive calls.

Chain of Coagulation factor XII (P00748 20-372 limits assumed): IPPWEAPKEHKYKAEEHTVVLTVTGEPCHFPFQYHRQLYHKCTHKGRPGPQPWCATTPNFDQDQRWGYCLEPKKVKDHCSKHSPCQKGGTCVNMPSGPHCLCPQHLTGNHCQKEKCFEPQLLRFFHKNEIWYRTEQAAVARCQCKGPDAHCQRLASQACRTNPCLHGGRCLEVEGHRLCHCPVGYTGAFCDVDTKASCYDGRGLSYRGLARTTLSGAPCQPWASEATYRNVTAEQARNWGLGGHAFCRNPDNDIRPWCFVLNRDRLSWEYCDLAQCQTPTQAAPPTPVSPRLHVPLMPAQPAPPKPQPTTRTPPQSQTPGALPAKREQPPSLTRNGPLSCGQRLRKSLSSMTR
Chain of Coagulation factor XII (P00748 373-615 limits assumed): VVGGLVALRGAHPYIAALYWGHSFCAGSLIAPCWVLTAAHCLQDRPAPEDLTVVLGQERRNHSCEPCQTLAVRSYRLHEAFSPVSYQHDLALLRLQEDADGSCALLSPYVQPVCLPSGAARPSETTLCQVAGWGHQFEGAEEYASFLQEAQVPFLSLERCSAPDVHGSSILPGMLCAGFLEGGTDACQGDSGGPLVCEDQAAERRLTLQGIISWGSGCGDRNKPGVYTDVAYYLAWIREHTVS
T1 sequence (P51452 whole entry): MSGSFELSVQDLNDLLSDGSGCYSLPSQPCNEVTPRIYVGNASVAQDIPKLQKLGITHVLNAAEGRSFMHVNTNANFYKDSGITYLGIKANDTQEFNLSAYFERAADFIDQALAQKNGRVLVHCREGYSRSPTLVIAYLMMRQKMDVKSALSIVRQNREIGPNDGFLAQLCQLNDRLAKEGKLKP
Chain of SUMO-activating enzyme (Q9UBE0 whole entry): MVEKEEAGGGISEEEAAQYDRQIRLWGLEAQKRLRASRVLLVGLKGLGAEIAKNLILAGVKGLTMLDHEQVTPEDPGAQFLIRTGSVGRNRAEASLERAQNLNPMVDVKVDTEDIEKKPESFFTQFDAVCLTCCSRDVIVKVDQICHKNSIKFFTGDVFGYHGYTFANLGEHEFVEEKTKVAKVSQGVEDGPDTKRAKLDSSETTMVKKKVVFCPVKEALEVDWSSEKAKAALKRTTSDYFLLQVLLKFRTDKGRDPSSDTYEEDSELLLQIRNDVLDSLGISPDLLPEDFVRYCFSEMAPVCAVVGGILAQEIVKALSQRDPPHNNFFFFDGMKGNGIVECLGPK
Chain of SUMO-activating enzyme (Q9UBT2 whole entry): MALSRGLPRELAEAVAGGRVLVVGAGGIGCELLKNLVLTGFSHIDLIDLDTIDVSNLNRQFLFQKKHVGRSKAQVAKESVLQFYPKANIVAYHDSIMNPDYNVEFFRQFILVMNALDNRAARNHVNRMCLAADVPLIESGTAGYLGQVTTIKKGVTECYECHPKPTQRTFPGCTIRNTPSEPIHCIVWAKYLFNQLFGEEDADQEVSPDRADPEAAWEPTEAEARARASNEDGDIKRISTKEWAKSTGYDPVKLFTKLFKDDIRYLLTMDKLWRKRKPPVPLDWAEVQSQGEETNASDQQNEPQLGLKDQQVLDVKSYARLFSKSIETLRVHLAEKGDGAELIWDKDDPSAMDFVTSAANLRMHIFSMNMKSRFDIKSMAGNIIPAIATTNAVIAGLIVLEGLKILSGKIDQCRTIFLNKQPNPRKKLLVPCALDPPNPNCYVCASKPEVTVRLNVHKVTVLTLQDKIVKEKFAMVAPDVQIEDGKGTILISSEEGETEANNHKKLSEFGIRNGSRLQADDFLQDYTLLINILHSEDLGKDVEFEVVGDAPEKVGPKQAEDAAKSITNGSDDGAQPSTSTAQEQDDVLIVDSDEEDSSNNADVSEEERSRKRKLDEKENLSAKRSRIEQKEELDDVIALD
Chain of Nucleotide-binding oligomerization domain-containing protein 2 (Q9HC29 whole entry, the tested form may be a part): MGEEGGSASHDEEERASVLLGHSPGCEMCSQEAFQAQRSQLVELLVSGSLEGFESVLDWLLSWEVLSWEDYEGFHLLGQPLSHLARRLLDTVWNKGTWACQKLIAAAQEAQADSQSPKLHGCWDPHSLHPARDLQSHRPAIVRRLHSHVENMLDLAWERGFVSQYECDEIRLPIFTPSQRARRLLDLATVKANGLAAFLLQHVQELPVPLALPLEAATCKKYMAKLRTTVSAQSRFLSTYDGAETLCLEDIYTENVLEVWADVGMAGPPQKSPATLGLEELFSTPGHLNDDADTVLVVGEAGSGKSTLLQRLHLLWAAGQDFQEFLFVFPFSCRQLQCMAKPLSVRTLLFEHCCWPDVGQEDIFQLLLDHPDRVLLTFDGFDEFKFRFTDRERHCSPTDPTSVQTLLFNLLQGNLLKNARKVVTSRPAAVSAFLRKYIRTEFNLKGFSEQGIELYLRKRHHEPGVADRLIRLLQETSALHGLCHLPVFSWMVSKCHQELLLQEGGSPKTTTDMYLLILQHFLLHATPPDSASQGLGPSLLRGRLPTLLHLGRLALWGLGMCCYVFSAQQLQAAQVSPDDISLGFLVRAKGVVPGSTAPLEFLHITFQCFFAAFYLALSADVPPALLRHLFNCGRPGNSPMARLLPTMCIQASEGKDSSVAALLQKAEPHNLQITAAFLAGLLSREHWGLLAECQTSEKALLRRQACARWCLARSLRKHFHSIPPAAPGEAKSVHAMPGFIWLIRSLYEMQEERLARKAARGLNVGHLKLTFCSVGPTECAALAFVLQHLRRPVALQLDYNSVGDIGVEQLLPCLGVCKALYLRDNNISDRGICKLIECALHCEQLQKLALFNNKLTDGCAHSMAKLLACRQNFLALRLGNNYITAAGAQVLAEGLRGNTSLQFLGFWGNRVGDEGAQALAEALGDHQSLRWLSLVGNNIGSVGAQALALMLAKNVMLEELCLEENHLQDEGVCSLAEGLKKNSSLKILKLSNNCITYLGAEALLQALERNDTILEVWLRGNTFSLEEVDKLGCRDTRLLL
Chain of Lysine-specific demethylase 4C (Q9H3R0 whole entry): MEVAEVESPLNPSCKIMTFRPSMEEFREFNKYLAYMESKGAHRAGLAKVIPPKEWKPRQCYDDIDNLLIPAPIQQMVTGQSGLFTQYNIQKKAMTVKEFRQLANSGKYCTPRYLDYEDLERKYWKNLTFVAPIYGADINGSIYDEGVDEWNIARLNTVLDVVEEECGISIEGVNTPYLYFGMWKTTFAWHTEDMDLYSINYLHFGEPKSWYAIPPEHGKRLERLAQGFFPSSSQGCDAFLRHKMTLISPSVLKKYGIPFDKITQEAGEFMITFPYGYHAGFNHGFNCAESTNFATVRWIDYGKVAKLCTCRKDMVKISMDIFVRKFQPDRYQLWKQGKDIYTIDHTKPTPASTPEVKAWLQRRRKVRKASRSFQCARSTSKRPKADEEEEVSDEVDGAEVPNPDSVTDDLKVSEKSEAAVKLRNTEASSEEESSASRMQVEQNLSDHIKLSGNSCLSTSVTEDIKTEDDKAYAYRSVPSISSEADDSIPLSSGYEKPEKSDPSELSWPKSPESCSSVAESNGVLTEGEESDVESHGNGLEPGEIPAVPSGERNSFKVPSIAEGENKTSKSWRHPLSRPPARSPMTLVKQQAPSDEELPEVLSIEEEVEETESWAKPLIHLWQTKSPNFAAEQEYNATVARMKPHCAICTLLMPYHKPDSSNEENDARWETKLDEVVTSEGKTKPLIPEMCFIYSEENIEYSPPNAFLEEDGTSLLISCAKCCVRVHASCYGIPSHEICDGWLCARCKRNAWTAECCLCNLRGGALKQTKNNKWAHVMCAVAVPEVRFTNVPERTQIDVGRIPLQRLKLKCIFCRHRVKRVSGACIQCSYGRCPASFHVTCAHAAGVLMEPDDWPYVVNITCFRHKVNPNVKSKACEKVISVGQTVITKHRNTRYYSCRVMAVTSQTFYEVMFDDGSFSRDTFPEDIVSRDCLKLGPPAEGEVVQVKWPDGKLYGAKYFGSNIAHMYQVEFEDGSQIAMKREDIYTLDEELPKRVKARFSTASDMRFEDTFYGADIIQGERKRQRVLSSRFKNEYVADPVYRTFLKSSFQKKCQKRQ
Chain of Paired box protein Pax-8 (Q06710 whole entry): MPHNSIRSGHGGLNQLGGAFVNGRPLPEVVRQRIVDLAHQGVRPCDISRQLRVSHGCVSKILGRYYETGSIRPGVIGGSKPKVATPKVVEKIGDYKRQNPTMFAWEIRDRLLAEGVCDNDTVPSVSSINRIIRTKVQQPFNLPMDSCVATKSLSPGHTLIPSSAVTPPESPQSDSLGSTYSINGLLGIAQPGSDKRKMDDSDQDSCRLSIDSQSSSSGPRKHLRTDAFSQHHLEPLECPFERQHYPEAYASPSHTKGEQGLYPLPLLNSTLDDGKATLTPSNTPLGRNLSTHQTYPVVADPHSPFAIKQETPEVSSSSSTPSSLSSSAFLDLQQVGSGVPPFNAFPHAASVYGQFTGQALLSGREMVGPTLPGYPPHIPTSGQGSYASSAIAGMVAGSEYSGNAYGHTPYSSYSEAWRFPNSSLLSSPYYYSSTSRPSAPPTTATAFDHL
Chain of DNA dC->dU-editing enzyme APOBEC-3G (Q9HC16 whole entry): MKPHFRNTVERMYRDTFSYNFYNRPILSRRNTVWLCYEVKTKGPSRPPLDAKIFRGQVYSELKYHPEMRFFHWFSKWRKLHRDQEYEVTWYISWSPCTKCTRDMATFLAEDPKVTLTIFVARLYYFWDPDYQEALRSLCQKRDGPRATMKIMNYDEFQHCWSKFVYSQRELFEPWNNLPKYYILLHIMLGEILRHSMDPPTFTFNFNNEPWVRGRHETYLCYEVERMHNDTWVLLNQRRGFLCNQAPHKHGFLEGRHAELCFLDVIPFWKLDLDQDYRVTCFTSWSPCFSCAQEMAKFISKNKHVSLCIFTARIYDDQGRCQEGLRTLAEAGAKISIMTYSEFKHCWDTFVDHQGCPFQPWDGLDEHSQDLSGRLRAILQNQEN

Regarding `CCOC(=O)c1sc(N(C)C(C)=O)nc1C`, on Coagulation factor XII, the IC50 was > 50 µM (inactive).
With `COC(=O)c1sc(NC(=O)c2cc(-c3ccccc3)nc3ccccc23)c(C#N)c1C`, the IC50 is 1.15 µM (active) in assay [1], 2.08 µM (active) in assay [2], > 158 µM (not active) in assay [3] and 28.6 µM (active) in assay [4].
Regarding `NC(=S)N=Nc1c(O)n(CCCl)c2ccccc12`, the IC50 is > 20 µM (inactive) on Bcl-2-related protein A1, 18 µM (active) in assay [5] and 10.8 µM (active) in [6].
For the compound `CCC(C)NC(=O)CSC1=Nc2ccccc2C2=NC(CC(=O)NCc3ccccc3)C(=O)N12` (stereo not drawn), in assay [7], the EC50 is > 100 µM (inactive).
In the case of `Cc1cc(C=C2C(=O)NC(=S)NC2=O)c(C)n1-c1ccc2c(c1)OCO2`, the values for the CC50 in assay [8] and in [9] were 14.3 µM (active) and > 40 µM (active), respectively. Also, the AC50 in assay [10] is 9.41 µM (active).
In the case of `COc1ccc(NC(NC(=O)c2cccnc2)C(Cl)(Cl)Cl)cc1` (stereo not drawn), the IC50 at Coagulation factor XII is > 50 µM (inactive).
With `O=C(Nc1ccc(N2C(=O)C3C4C=CC(C4)C3C2=O)cc1)Nc1cccnc1` (stereo not drawn), at SUMO-activating enzyme, the IC50 was > 100 µM (inactive).
`O=c1cc(C(Cl)(Cl)Cl)oc2c1ccc1ccccc12`: the IC50 in assay [11] was 1.78 µM (active); in [12], 1.28 µM (active). The CC50 with Vero was 5.35 µM (active). Besides, the EC50 is 0.893 µM (active) in [13] and 3.32 µM (active) in [14]. Besides, the AC50 at Paired box protein Pax-8 is 2.66 µM (active).
For the compound `CCn1c(=O)cc(SCC(=O)N2CCN(C3CCCCC3)CC2)c2ccccc21`, the figures for the EC50 in assay [15], in assay [16] and in assay [17] were > 79.4 µM (inactive), > 79.4 µM (not active) and > 79.4 µM (not active), respectively. Also, the IC50 at Bcl-2-related protein A1 is > 20 µM (inactive); in assay [5], 14.5 µM (active); in assay [6] it was > 20 µM (inactive).
Turning to `Brc1ccc2ncnc(NCc3ccco3)c2c1`, the values for the concentration for a half-maximal effect (EC50) (in the assay with HEK293 [18]; in assay [21]) were 3.41 µM (active) and 6.5 µM (active), respectively. Besides, the IC50 is 4.57 µM (active) with HEK293 [19], > 20 µM (inactive) in the assay with HEK293 [20], 5.54 µM (active) with HEK293 [22] and > 20 µM (inactive) in the assay with HEK293 [23].
As for `Cc1ccc(/C=N/NC(=O)CSc2nnc(-c3ccc(Cl)cc3)n2-c2ccccc2)o1`, the EC50 in assay [7] is > 100 µM (inactive).

Broadly, the IC50 is the concentration that gives 50% inhibition. In general, EC50 refers to the concentration at which the effect is half-maximal. By CC50 is commonly meant the concentration giving 50% cytotoxicity. The AC50 is the concentration giving half of the maximal activity seen.

Source of the values: ChEMBL document CHEMBL1201862, “PubChem BioAssay data set” (2004).
